# ChEMBL document CHEMBL2440045, “The synthesis and anticancer activity of analogs of the indole phytoalexins brassinin, 1-methoxyspirobrassinol methyl ether and cyclobrassinin” (Bioorg Med Chem, 2013)
# Test system: MDA-MB-231
# Test: Antiproliferative activity against human MDA-MB-231 cells assessed as cell viability after 72 hrs by MTT assay
# Type: functional, cell-based
# Conditions: MDA-MB-231, 72 h
row,IC50 [µM],SMILES
1,69.3,CO[C@H]1N(C(=O)OC(C)(C)C)c2ccccc2[C@@]12CN=C(N1CCOCC1)S2 (racemic)
2,30,CO[C@H]1N(C(=O)OC(C)(C)C)c2ccccc2[C@@]12CN=C(Nc1ccc(F)cc1)S2 (racemic)
3,28,CC(C)(C)OC(=O)n1cc(CNC(=S)Nc2ccccc2)c2ccccc21
4,21.3,CO[C@@H]1N(C(=O)OC(C)(C)C)c2ccccc2[C@@]12CN=C(Nc1ccc(C(F)(F)F)cc1)S2 (racemic)
5,> 100,COn1cc(CNC(=S)SC)c2ccccc21 [1-METHOXYBRASSININ]
6,40.3,CO[C@H]1N(C(=O)OC(C)(C)C)c2ccccc2[C@@]12CN=C(Nc1ccccc1)S2 (racemic)
7,27.5,CO[C@@H]1N(C(=O)OC(C)(C)C)c2ccccc2[C@@]12CN=C(N(C)c1ccccc1)S2 (racemic)
8,> 100,CNC1=NC[C@]2(S1)c1ccccc1N(C(=O)OC(C)(C)C)[C@@H]2OC (racemic)
9,22.2,CC(C)(C)OC(=O)n1cc(CNC(=S)Nc2ccc(F)cc2)c2ccccc21
10,38.3,COc1ccc(NC2=NC[C@]3(S2)c2ccccc2N(C(=O)OC(C)(C)C)[C@@H]3OC)cc1 (racemic)
11,95,CSC1=NC[C@]2(S1)c1ccccc1N(C(=O)OC(C)(C)C)[C@H]2O (racemic)
12,37.5,CC(C)(C)OC(=O)n1cc(CNC(=S)NC2CCCCC2)c2ccccc21
13,34,CO[C@@H]1N(C(=O)OC(C)(C)C)c2ccccc2[C@@]12CN=C(Nc1ccccc1)S2 (racemic)
14,61.3,CO[C@H]1N(C(=O)OC(C)(C)C)c2ccccc2[C@@]12CN=C(N1CCCCC1)S2 (racemic)
15,26.1,CO[C@H]1N(C(=O)OC(C)(C)C)c2ccccc2[C@@]12CN=C(NC1CCCCC1)S2 (racemic)

# Test system: CCRF-CEM
# Test: Antiproliferative activity against human CCRF-CEM cells assessed as cell viability after 72 hrs by MTT assay
# Type: functional, cell-based
# Conditions: not given
row,IC50 [µM],SMILES
1,51.4,CO[C@H]1N(C(=O)OC(C)(C)C)c2ccccc2[C@@]12CN=C(N1CCOCC1)S2 (racemic)
2,27,CO[C@H]1N(C(=O)OC(C)(C)C)c2ccccc2[C@@]12CN=C(Nc1ccc(F)cc1)S2 (racemic)
3,90.7,CC(C)(C)OC(=O)n1cc(CNC(=S)Nc2ccccc2)c2ccccc21
4,6.7,CO[C@@H]1N(C(=O)OC(C)(C)C)c2ccccc2[C@@]12CN=C(Nc1ccc(C(F)(F)F)cc1)S2 (racemic)
5,63.5,COn1cc(CNC(=S)SC)c2ccccc21 [1-METHOXYBRASSININ]
6,12.2,CO[C@H]1N(C(=O)OC(C)(C)C)c2ccccc2[C@@]12CN=C(Nc1ccccc1)S2 (racemic)
7,26.6,CO[C@@H]1N(C(=O)OC(C)(C)C)c2ccccc2[C@@]12CN=C(N(C)c1ccccc1)S2 (racemic)
8,44.4,CNC1=NC[C@]2(S1)c1ccccc1N(C(=O)OC(C)(C)C)[C@@H]2OC (racemic)
9,12,CC(C)(C)OC(=O)n1cc(CNC(=S)Nc2ccc(F)cc2)c2ccccc21
10,24.7,COc1ccc(NC2=NC[C@]3(S2)c2ccccc2N(C(=O)OC(C)(C)C)[C@@H]3OC)cc1 (racemic)
11,27.1,CSC1=NC[C@]2(S1)c1ccccc1N(C(=O)OC(C)(C)C)[C@H]2O (racemic)
12,7,CC(C)(C)OC(=O)n1cc(CNC(=S)NC2CCCCC2)c2ccccc21
13,22,CO[C@@H]1N(C(=O)OC(C)(C)C)c2ccccc2[C@@]12CN=C(Nc1ccccc1)S2 (racemic)
14,26.1,CO[C@H]1N(C(=O)OC(C)(C)C)c2ccccc2[C@@]12CN=C(N1CCCCC1)S2 (racemic)
15,5.1,CO[C@H]1N(C(=O)OC(C)(C)C)c2ccccc2[C@@]12CN=C(NC1CCCCC1)S2 (racemic)

# Test system: HeLa
# Test: Antiproliferative activity against human HeLa cells assessed as cell viability after 72 hrs by MTT assay
# Type: functional, cell-based
# Conditions: not given
row,IC50 [µM],SMILES
1,55.5,CO[C@H]1N(C(=O)OC(C)(C)C)c2ccccc2[C@@]12CN=C(N1CCOCC1)S2 (racemic)
2,29,CO[C@H]1N(C(=O)OC(C)(C)C)c2ccccc2[C@@]12CN=C(Nc1ccc(F)cc1)S2 (racemic)
3,20.4,CC(C)(C)OC(=O)n1cc(CNC(=S)Nc2ccccc2)c2ccccc21
4,11.3,CO[C@@H]1N(C(=O)OC(C)(C)C)c2ccccc2[C@@]12CN=C(Nc1ccc(C(F)(F)F)cc1)S2 (racemic)
5,> 100,COn1cc(CNC(=S)SC)c2ccccc21 [1-METHOXYBRASSININ]
6,31.7,CO[C@H]1N(C(=O)OC(C)(C)C)c2ccccc2[C@@]12CN=C(Nc1ccccc1)S2 (racemic)
7,32,CO[C@@H]1N(C(=O)OC(C)(C)C)c2ccccc2[C@@]12CN=C(N(C)c1ccccc1)S2 (racemic)
8,> 100,CNC1=NC[C@]2(S1)c1ccccc1N(C(=O)OC(C)(C)C)[C@@H]2OC (racemic)
9,10.7,CC(C)(C)OC(=O)n1cc(CNC(=S)Nc2ccc(F)cc2)c2ccccc21
10,25,COc1ccc(NC2=NC[C@]3(S2)c2ccccc2N(C(=O)OC(C)(C)C)[C@@H]3OC)cc1 (racemic)
11,93.6,CSC1=NC[C@]2(S1)c1ccccc1N(C(=O)OC(C)(C)C)[C@H]2O (racemic)
12,8,CC(C)(C)OC(=O)n1cc(CNC(=S)NC2CCCCC2)c2ccccc21
13,28,CO[C@@H]1N(C(=O)OC(C)(C)C)c2ccccc2[C@@]12CN=C(Nc1ccccc1)S2 (racemic)
14,54.9,CO[C@H]1N(C(=O)OC(C)(C)C)c2ccccc2[C@@]12CN=C(N1CCCCC1)S2 (racemic)
15,32,CO[C@H]1N(C(=O)OC(C)(C)C)c2ccccc2[C@@]12CN=C(NC1CCCCC1)S2 (racemic)

# Test system: MCF7
# Test: Antiproliferative activity against human MCF7 cells assessed as cell viability after 72 hrs by MTT assay
# Type: functional, cell-based
# Conditions: MCF7, 72 h
row,IC50 [µM],SMILES
1,70.1,CO[C@H]1N(C(=O)OC(C)(C)C)c2ccccc2[C@@]12CN=C(N1CCOCC1)S2 (racemic)
2,30,CO[C@H]1N(C(=O)OC(C)(C)C)c2ccccc2[C@@]12CN=C(Nc1ccc(F)cc1)S2 (racemic)
3,0.72,CC(C)(C)OC(=O)n1cc(CNC(=S)Nc2ccccc2)c2ccccc21
4,11.1,CO[C@@H]1N(C(=O)OC(C)(C)C)c2ccccc2[C@@]12CN=C(Nc1ccc(C(F)(F)F)cc1)S2 (racemic)
5,> 100,COn1cc(CNC(=S)SC)c2ccccc21 [1-METHOXYBRASSININ]
6,6.2,CO[C@H]1N(C(=O)OC(C)(C)C)c2ccccc2[C@@]12CN=C(Nc1ccccc1)S2 (racemic)
7,28,CO[C@@H]1N(C(=O)OC(C)(C)C)c2ccccc2[C@@]12CN=C(N(C)c1ccccc1)S2 (racemic)
8,> 100,CNC1=NC[C@]2(S1)c1ccccc1N(C(=O)OC(C)(C)C)[C@@H]2OC (racemic)
9,27.6,CC(C)(C)OC(=O)n1cc(CNC(=S)Nc2ccc(F)cc2)c2ccccc21
10,31.2,COc1ccc(NC2=NC[C@]3(S2)c2ccccc2N(C(=O)OC(C)(C)C)[C@@H]3OC)cc1 (racemic)
11,100,CSC1=NC[C@]2(S1)c1ccccc1N(C(=O)OC(C)(C)C)[C@H]2O (racemic)
12,21.5,CC(C)(C)OC(=O)n1cc(CNC(=S)NC2CCCCC2)c2ccccc21
13,32,CO[C@@H]1N(C(=O)OC(C)(C)C)c2ccccc2[C@@]12CN=C(Nc1ccccc1)S2 (racemic)
14,52.6,CO[C@H]1N(C(=O)OC(C)(C)C)c2ccccc2[C@@]12CN=C(N1CCCCC1)S2 (racemic)
15,27.5,CO[C@H]1N(C(=O)OC(C)(C)C)c2ccccc2[C@@]12CN=C(NC1CCCCC1)S2 (racemic)

# Test system: A549
# Test: Antiproliferative activity against human A549 cells assessed as cell viability after 72 hrs by MTT assay
# Type: functional, cell-based
# Conditions: A549, 72 h
row,IC50 [µM],SMILES
1,> 100,CO[C@H]1N(C(=O)OC(C)(C)C)c2ccccc2[C@@]12CN=C(N1CCOCC1)S2 (racemic)
2,30,CO[C@H]1N(C(=O)OC(C)(C)C)c2ccccc2[C@@]12CN=C(Nc1ccc(F)cc1)S2 (racemic)
3,6.6,CC(C)(C)OC(=O)n1cc(CNC(=S)Nc2ccccc2)c2ccccc21
4,17.9,CO[C@@H]1N(C(=O)OC(C)(C)C)c2ccccc2[C@@]12CN=C(Nc1ccc(C(F)(F)F)cc1)S2 (racemic)
5,> 100,COn1cc(CNC(=S)SC)c2ccccc21 [1-METHOXYBRASSININ]
6,29.2,CO[C@H]1N(C(=O)OC(C)(C)C)c2ccccc2[C@@]12CN=C(Nc1ccccc1)S2 (racemic)
7,28.7,CO[C@@H]1N(C(=O)OC(C)(C)C)c2ccccc2[C@@]12CN=C(N(C)c1ccccc1)S2 (racemic)
8,> 100,CNC1=NC[C@]2(S1)c1ccccc1N(C(=O)OC(C)(C)C)[C@@H]2OC (racemic)
9,24.3,CC(C)(C)OC(=O)n1cc(CNC(=S)Nc2ccc(F)cc2)c2ccccc21
10,31.3,COc1ccc(NC2=NC[C@]3(S2)c2ccccc2N(C(=O)OC(C)(C)C)[C@@H]3OC)cc1 (racemic)
11,100,CSC1=NC[C@]2(S1)c1ccccc1N(C(=O)OC(C)(C)C)[C@H]2O (racemic)
12,33.5,CC(C)(C)OC(=O)n1cc(CNC(=S)NC2CCCCC2)c2ccccc21
13,34,CO[C@@H]1N(C(=O)OC(C)(C)C)c2ccccc2[C@@]12CN=C(Nc1ccccc1)S2 (racemic)
14,54.2,CO[C@H]1N(C(=O)OC(C)(C)C)c2ccccc2[C@@]12CN=C(N1CCCCC1)S2 (racemic)
15,27.7,CO[C@H]1N(C(=O)OC(C)(C)C)c2ccccc2[C@@]12CN=C(NC1CCCCC1)S2 (racemic)

# Test system: Jurkat
# Test: Antiproliferative activity against human Jurkat cells assessed as cell viability after 72 hrs by MTT assay
# Type: functional, cell-based
# Conditions: not given
row,IC50 [µM],SMILES
1,31.3,CO[C@H]1N(C(=O)OC(C)(C)C)c2ccccc2[C@@]12CN=C(N1CCOCC1)S2 (racemic)
2,19,CO[C@H]1N(C(=O)OC(C)(C)C)c2ccccc2[C@@]12CN=C(Nc1ccc(F)cc1)S2 (racemic)
3,3.1,CC(C)(C)OC(=O)n1cc(CNC(=S)Nc2ccccc2)c2ccccc21
4,5.6,CO[C@@H]1N(C(=O)OC(C)(C)C)c2ccccc2[C@@]12CN=C(Nc1ccc(C(F)(F)F)cc1)S2 (racemic)
5,37.5,COn1cc(CNC(=S)SC)c2ccccc21 [1-METHOXYBRASSININ]
6,10,CO[C@H]1N(C(=O)OC(C)(C)C)c2ccccc2[C@@]12CN=C(Nc1ccccc1)S2 (racemic)
7,26,CO[C@@H]1N(C(=O)OC(C)(C)C)c2ccccc2[C@@]12CN=C(N(C)c1ccccc1)S2 (racemic)
8,83.4,CNC1=NC[C@]2(S1)c1ccccc1N(C(=O)OC(C)(C)C)[C@@H]2OC (racemic)
9,19.8,CC(C)(C)OC(=O)n1cc(CNC(=S)Nc2ccc(F)cc2)c2ccccc21
10,25,COc1ccc(NC2=NC[C@]3(S2)c2ccccc2N(C(=O)OC(C)(C)C)[C@@H]3OC)cc1 (racemic)
11,29.8,CSC1=NC[C@]2(S1)c1ccccc1N(C(=O)OC(C)(C)C)[C@H]2O (racemic)
12,11,CC(C)(C)OC(=O)n1cc(CNC(=S)NC2CCCCC2)c2ccccc21
13,19,CO[C@@H]1N(C(=O)OC(C)(C)C)c2ccccc2[C@@]12CN=C(Nc1ccccc1)S2 (racemic)
14,24.9,CO[C@H]1N(C(=O)OC(C)(C)C)c2ccccc2[C@@]12CN=C(N1CCCCC1)S2 (racemic)
15,5.2,CO[C@H]1N(C(=O)OC(C)(C)C)c2ccccc2[C@@]12CN=C(NC1CCCCC1)S2 (racemic)
